The values below come from patent publication US20230183323A1 (BROWN UNIVERSITY, priority 2020, published 2023).

For the test, the system named is pseudovirus containing S protein mutations D614G, E484K, United Kingdom, South African, Brazilian. In kind it is cell-based, SARS-CoV-2.

Consider “rhCHI3L1: recombinant human CHI3L1 from a commercial source (R&D Inc.) or generated at Brown University”, for which the “cellular integration of Spike proteins of SARS-Cov2 (% of GFP positive cells, FACS)” value was “stimulated”.
